Some test systems named below: CHRF288-11; CMK; CMS; M07e; ML-2; MOLM-13; MV4-11; U937.
What all share (design): species or system AML cell lines (8); Primary HTS, single concentration about 10 uM, Cell Titer Glo viability; log10 luminescence, per cent inhibition relative to cycloheximide control
Holding throughout (details): 72 h, relative to cycloheximide control, log10 luminescence; inhibitor
(Cellular ATP, detected with luciferase, serves as a proxy for viable cell number.)

Data on 18 compounds can be found in publication PMC6522510 (Nature Communications, 2019).

As for `CC1=C(C(=O)Nc2cc(Cl)c3[nH]ncc3c2)C(c2ccc(C(F)(F)F)cc2)CC(=O)N1` (stereo not drawn) [SJ000573181-1, SD204573-088A4], in the assay on CHRF288-11, the CHRF288-11 %inh was determined as 20.3%. Besides, the CMK %inh in the assay with CMK was determined as 54.4%. The CMS %inh in the assay on CMS is 8.733%. In addition, in the assay with M07e, the M07e %inh stood at 13.65%. The ML-2 %inh in the assay with ML-2 was 13.01%. Further, the MOLM-13 %inh in the assay with MOLM-13 is 4.804%. Moreover, the MV4-11 %inh in the assay on MV4-11 was determined as 31.1%. The U937 %inh with U937 is 8.409%.

As for `Nc1nccc(-c2c(-c3ccc(F)cc3)ncn2C2CCC(O)CC2)n1` (stereo not drawn) [SJ000573182-1, MS27011-022A2], the CHRF288-11 %inh in the assay on CHRF288-11 worked out at 23.09%. For the same compound, the CMK %inh in the assay on CMK is recorded as 25.82%. In the assay on CMS, the CMS %inh turned out to be 9.299%. Also, in the assay on M07e, the M07e %inh is reported as 6.63%. Moreover, in the assay on ML-2, the ML-2 %inh is 10.85%. In addition, in the assay with MOLM-13, the MOLM-13 %inh is 26.67%. For the same compound, the MV4-11 %inh with MV4-11 is reported as 24.38%. In the assay with U937, the U937 %inh is 5.213%.

`O=C1NC(=O)C(c2ccccc2Cl)=C1Nc1cccc(O)c1` [SJ000573183-1, BS98679-018A5]: the CHRF288-11 %inh with CHRF288-11 is on record as 41.21%. For the same compound, in the assay on CMK, the CMK %inh is listed as 56.79%. Further, the CMS %inh in the assay with CMS was 26.93%. Also, the M07e %inh in the assay with M07e is 51.61%. Moreover, the ML-2 %inh in the assay on ML-2 was determined as 39.83%. In addition, the MOLM-13 %inh with MOLM-13 turned out to be 67.3%. The MV4-11 %inh in the assay on MV4-11 was determined as 22.8%. Further, the U937 %inh in the assay on U937 was determined as 51.74%.

As for `COc1cccc(-c2c[nH]c3c(N/N=C/c4ccncc4)ncnc23)c1` [SJ000573184-1, U18675/6/1], the CHRF288-11 %inh with CHRF288-11 was 52.41%. The CMK %inh in the assay with CMK is on record as 96.73%. The CMS %inh with CMS worked out at 90.74%. For the same compound, the M07e %inh in the assay on M07e stood at 38.1%. Further, the ML-2 %inh in the assay with ML-2 is reported as 19.51%. Besides, in the assay on MOLM-13, the MOLM-13 %inh is on record as 59.82%. Besides, the MV4-11 %inh in the assay on MV4-11 amounted to 58.64%. Moreover, the U937 %inh in the assay with U937 was 14.24%.

`NC(=O)c1sc(-n2cnc3cc(C(F)(F)F)ccc32)cc1OCc1ccccc1Br` [SJ000573185-1, U19121/197/1]: the CHRF288-11 %inh in the assay with CHRF288-11 is listed as 0.2512%. Moreover, the CMK %inh with CMK came out at 3.577%. The CMS %inh in the assay with CMS is -1.069%. For the same compound, the M07e %inh in the assay on M07e is listed as -2.426%. In addition, in the assay on ML-2, the ML-2 %inh is -0.4297%. In addition, the MOLM-13 %inh in the assay with MOLM-13 was found to be 0.4978%. The MV4-11 %inh in the assay with MV4-11 is 1.859%. Also, the U937 %inh with U937 is on record as -0.2413%.

Take `CS(=O)(=O)Nc1cccc(-c2ccc3c(NC(=O)C4CC4)n[nH]c3c2)c1` [SJ000573187-1, VB100064-178A3]: in the assay on CHRF288-11, the CHRF288-11 %inh is 25.27%. For the same compound, in the assay on CMK, the CMK %inh came to 72.59%. Moreover, the CMS %inh in the assay on CMS is given as 0.4745%. The M07e %inh in the assay on M07e is listed as 29.33%. The ML-2 %inh with ML-2 is listed as 56.77%. Besides, the MOLM-13 %inh in the assay with MOLM-13 stood at 75.64%. Moreover, the MV4-11 %inh in the assay with MV4-11 is reported as 73.57%. Besides, the U937 %inh in the assay on U937 is recorded as 80.28%.

Turning to `[O-][S+]1CCN(Cc2ccc(-c3ccc4ncnc(Nc5ccc(OCc6ccccc6)c(F)c5)c4c3)o2)CC1` [SJ000573188-1, U14859/145/2], the CHRF288-11 %inh in the assay with CHRF288-11 turned out to be 1.525%. Besides, the CMK %inh in the assay with CMK is listed as -1.588%. Further, the CMS %inh in the assay with CMS is recorded as -1.026%. Also, the M07e %inh in the assay with M07e was -1.871%. Moreover, the ML-2 %inh in the assay with ML-2 is given as -0.4978%. In addition, in the assay with MOLM-13, the MOLM-13 %inh turned out to be 2.781%. The MV4-11 %inh in the assay on MV4-11 is 1.608%. In addition, in the assay with U937, the U937 %inh was -0.5877%.

For `O=C(Nc1n[nH]c2cc(-c3cc(F)ccc3F)ccc12)C1CC1` [SJ000573189-1, VB100064-133A2], the CHRF288-11 %inh with CHRF288-11 turned out to be 23.56%. The CMK %inh in the assay on CMK came to 46.32%. Moreover, the CMS %inh in the assay on CMS turned out to be 3.394%. In the assay with M07e, the M07e %inh came to 13.96%. The ML-2 %inh with ML-2 amounted to 4.109%. In addition, the MOLM-13 %inh with MOLM-13 is on record as 3.339%. Besides, in the assay with MV4-11, the MV4-11 %inh is 1.045%. In the assay with U937, the U937 %inh is on record as 8.276%.

As for `CC1(C)CC(n2cnc(-c3ccc(F)cc3)c2-c2ccnc(N)n2)CC(C)(C)N1` [SJ000573190-1, JB19236-188C1], the CHRF288-11 %inh in the assay with CHRF288-11 is 9.345%. The CMK %inh with CMK amounted to 5.841%. Besides, in the assay with CMS, the CMS %inh is -2.621%. Also, the M07e %inh in the assay on M07e is listed as 10.18%. The ML-2 %inh with ML-2 is reported as 5.936%. The MOLM-13 %inh in the assay with MOLM-13 is given as 0.169%. Also, in the assay with MV4-11, the MV4-11 %inh amounted to 1.547%. Besides, the U937 %inh in the assay on U937 is listed as -2.021%.

Regarding `CC(C)c1ccc(Nc2nccc(-c3cnn4ncccc34)n2)cc1` [SJ000573192-1, U16419/190/2], the CHRF288-11 %inh in the assay with CHRF288-11 came out at 27.16%. Also, in the assay on CMK, the CMK %inh came to 58.79%. For the same compound, the CMS %inh in the assay with CMS was 101.8%. For the same compound, the M07e %inh in the assay on M07e is 49.73%. Further, in the assay with ML-2, the ML-2 %inh is 59.67%. The MOLM-13 %inh with MOLM-13 was 111.4%. Besides, the MV4-11 %inh in the assay on MV4-11 is 84.54%. The U937 %inh with U937 turned out to be 82.47%.

Consider `CCc1cccc(NC(=O)Nc2ccc(Oc3ccc4nc(NC(=O)OC)[nH]c4c3)cc2)c1` [SJ000573193-1, T229/79/1], for which the CHRF288-11 %inh with CHRF288-11 is recorded as -2.602%. Moreover, the CMK %inh in the assay with CMK came to 50%. Moreover, in the assay on CMS, the CMS %inh was -0.1127%. Also, the M07e %inh in the assay on M07e worked out at 0.5293%. Moreover, in the assay on ML-2, the ML-2 %inh came to 5.896%. For the same compound, the MOLM-13 %inh in the assay with MOLM-13 is reported as 61.84%. The MV4-11 %inh in the assay on MV4-11 came to 84.23%. Moreover, in the assay on U937, the U937 %inh is reported as 3.761%.

Regarding `Cc1nnc(-c2ccc(C)c(-c3ccc(C(=O)Nc4cccc(C#N)c4)cc3)c2)o1` [SJ000573195-1, R4373/145/1], in the assay with CHRF288-11, the CHRF288-11 %inh is -2.997%. Also, in the assay on CMK, the CMK %inh was found to be 1.609%. The CMS %inh with CMS is recorded as -1.248%. Moreover, in the assay on M07e, the M07e %inh is -0.9532%. In addition, the ML-2 %inh in the assay with ML-2 amounted to 2.033%. Moreover, the MOLM-13 %inh in the assay on MOLM-13 is listed as 1.779%. The MV4-11 %inh in the assay on MV4-11 is listed as 0.5717%. Moreover, the U937 %inh in the assay on U937 was -2.444%.

Turning to `COc1ccc2cc(-c3c(-c4ccncc4)nc(-c4ccc(S(C)(=O)=O)cc4C)n3C)ccc2c1` [SJ000573196-1, NJ44157-082B1], the CHRF288-11 %inh with CHRF288-11 was 3.66%. Also, the CMK %inh with CMK was 17.63%. Further, the CMS %inh in the assay with CMS is recorded as 1.339%. The M07e %inh with M07e is -0.09869%. In the assay with ML-2, the ML-2 %inh is 0.1738%. Further, in the assay on MOLM-13, the MOLM-13 %inh stood at 0.5598%. For the same compound, in the assay with MV4-11, the MV4-11 %inh amounted to 2.69%. In the assay with U937, the U937 %inh is listed as -1.98%.

With `Fc1ccc(-c2c(-c3ccncc3)nc3n2CCS3)cc1` [SJ000573197-1, EXSB/CR-9802-49AZ], the CHRF288-11 %inh in the assay on CHRF288-11 is 6.614%. Besides, the CMK %inh in the assay on CMK came out at 1.128%. In addition, the CMS %inh in the assay with CMS came to 6.192%. For the same compound, in the assay with M07e, the M07e %inh was determined as 1.347%. Also, the ML-2 %inh with ML-2 is listed as 4.223%. Moreover, in the assay with MOLM-13, the MOLM-13 %inh is -3.2%. Further, in the assay on MV4-11, the MV4-11 %inh is given as 10.89%. Further, the U937 %inh with U937 was 19.21%.

As to `CS(=O)(=O)Nc1ccc(-c2ccc3c(NC(=O)C4CC4)n[nH]c3c2)cc1` [SJ000573198-1, VB100064-183A1], in the assay on CHRF288-11, the CHRF288-11 %inh is reported as 1.64%. Moreover, the CMK %inh with CMK stood at 0.4517%. Also, the CMS %inh in the assay on CMS was -0.1456%. Further, the M07e %inh with M07e came to 7.577%. The ML-2 %inh in the assay on ML-2 is 1.388%. Also, the MOLM-13 %inh with MOLM-13 is recorded as 0.3925%. The MV4-11 %inh in the assay with MV4-11 stood at 1.756%. Moreover, the U937 %inh in the assay with U937 is listed as -2.07%.

For the compound `CN(C)CCCNc1nccc(-c2c(-c3ccc(F)cc3)nn3cc(C(F)(F)F)ccc23)n1` [SJ000573200-1, U14929/105/1], the CHRF288-11 %inh with CHRF288-11 was found to be 4.716%. The CMK %inh in the assay on CMK was determined as 6.318%. Further, the CMS %inh in the assay with CMS is given as -0.7094%. Moreover, the M07e %inh in the assay with M07e was 5.185%. Besides, in the assay with ML-2, the ML-2 %inh is on record as 2.988%. Also, the MOLM-13 %inh in the assay on MOLM-13 was 3.151%. In addition, the MV4-11 %inh in the assay on MV4-11 turned out to be 2.615%. Moreover, in the assay with U937, the U937 %inh is 2.291%.

Take `CCN1CCC(C(=O)Nc2n[nH]c3nnc(-c4cccc(F)c4F)cc23)CC1` [SJ000573202-1, JW48822-155B0]: in the assay on CHRF288-11, the CHRF288-11 %inh was found to be 19.17%. Moreover, the CMK %inh with CMK stood at 106.6%. In the assay with CMS, the CMS %inh amounted to 98.67%. For the same compound, the M07e %inh with M07e turned out to be 22.9%. The ML-2 %inh in the assay with ML-2 was determined as 2.893%. Moreover, in the assay on MOLM-13, the MOLM-13 %inh amounted to 18.95%. Moreover, in the assay with MV4-11, the MV4-11 %inh is given as 52.48%. Also, in the assay with U937, the U937 %inh came to 29.66%.

For `CCn1c(-c2nonc2N)nc2ccncc21` [SJ000573203-1, JS100940-045A1], the CHRF288-11 %inh in the assay on CHRF288-11 was 39.85%. The CMK %inh in the assay on CMK worked out at 40.02%. Besides, in the assay on CMS, the CMS %inh is -0.06255%. The M07e %inh with M07e is -2.227%. In addition, the ML-2 %inh in the assay with ML-2 was found to be 2.303%. Besides, the MOLM-13 %inh in the assay on MOLM-13 came out at 0.1335%. In the assay with MV4-11, the MV4-11 %inh is listed as -1.945%. For the same compound, the U937 %inh with U937 came out at 1.08%.
